Results: patent publication US11753409B2, “Crystalline salts of a B-RAF kinase inhibitor” (Xynomic Pharmaceuticals, Inc., priority 2017, dated 2023)
Where two headings read alike, the source gives them in different places.

Assays:
[1] = Equilibrium solubility in various aqueous media (solubility after 2 h); format: physicochemical; conditions: thermodynamic from solid
Procedure: Saturated solutions are prepared in well plates by adding an appropriate volume of selected aqueous media (typically in the range of 0.25-1.5 mL) into each well which contains a known quantity of solid drug substance (typically in the range 0.5-5.0 mg). The wells are shaken or stirred for a predefined time period (typically in a range of 2-24 h) and then filtered using appropriate filter membranes (typically PTFE-filters with 0.45 μm pore size). Filter absorption is avoided by discarding the first few drops of filtrate. The amount of dissolved drug substance is determined by UV spectroscopy. In addition, the pH of the aqueous saturated solution is measured using a glass-electrode pH meter.
The equilibrium solubility of N-(3-(5-((1-Ethylpiperidin-4-yl)(methyl)amino)-3-(pyrimidin-5-yl)-1H-pyrrolo[3,2-b]pyridin-1-yl)-2,4-difluorophenyl)propane-1-sulfonamide monohydrochloride salt in various media was determined.
The solubility of N-(3-(5-((1-Ethylpiperidin-4-yl)(methyl)amino)-3-(pyrimidin-5-yl)-1H-pyrrolo[3,2-b]pyridin-1-yl)-2,4-difluorophenyl)propane-1-sulfonamide monosuccinate salt in various media was determined.

[2] = Intrinsic dissolution rate, rotating disc method; format: physicochemical
Procedure: The intrinsic dissolution rate of 3-(5-((1-ethylpiperidin-4-yl)(methyl)amino)-3-(pyrimidin-5-yl)-1H-pyrrolo[3,2-b]pyridin-1-yl)-2,4-difluorophenyl)propane-1-sulfonamide salts was determined in aqueous media covering a range of pH 1.1-7.4 using the rotating disc method which maintains a constant surface area.
The drug substance (5 mg) was compressed at 356.1 Newtons for 60 s to form a disk. These disks were mounted to sample holders which fit into a miniaturized dissolution testing apparatus. The dissolution media were stirred at 200 rpm at a temperature of 37° C. Samples were automatically withdrawn every second minute from the dissolution vessel and assayed by UV spectrophotometry.
The intrinsic dissolution rate of N-(3-(5-((1-ethylpiperidin-4-yl)(methyl)amino)-3-(pyrimidin-5-yl)-TH-pyrrolo[3,2-b]pyridin-1-yl)-2,4-difluorophenyl)propane-1-sulfonamide monohydrochloride salt in various media was measured in media at various pH values.
The intrinsic dissolution rate of N-(3-(5-((1-ethylpiperidin-4-yl)(methyl)amino)-3-(pyrimidin-5-yl)-1H-pyrrolo[3,2-b]pyridin-1-yl)-2,4-difluorophenyl)propane-1-sulfonamide monosuccinate salt in various media was measured in media at various pH values.

[3] = Pharmacokinetics following oral administration to rats; format: in vivo, HsdHan:WIST Norway rats; conditions: rat; for AUD: AUD range 0-6 h; for concentration at 24 h: mean n = 3, read-out: Blood Plasma Concentrations
Procedure: The pharmacokinetics of N-(3-(5-((1-ethylpiperidin-4-yl)(methyl)amino)-3-(pyrimidin-5-yl)-1H-pyrrolo[3,2-b]pyridin-1-yl)-2,4-difluorophenyl)propane-1-sulfonamide hydrochloride salt and N-(3-(5-((1-ethylpiperidin-4-yl)(methyl)amino)-3-(pyrimidin-5-yl)-1H-pyrrolo[3,2-b]pyridin-1-yl)-2,4-difluorophenyl)propane-1-sulfonamide […] following oral administration at 40 mg and 80 mg (dose calculated as the free base) to HsdHan:WIST Norway rats. Each salt was administered to 3 animals.

[4] = Sorption-desorption (DVS) of the salts with XRPD before and after; format: physicochemical
Procedure: Dynamic Vapor Sorption (DVS) was performed in a IGAsorp Water Sorption Analyzer from Hiden Isochema. Adsorption and desorption isotherms were performed at 25° C. with 10% RH step intervals ranging from 0% relative humidity up to 90% relative humidity.

[5] = Milling and compression stress followed by XRPD; format: physicochemical
Procedure: FIG. 20 is a plot of the XRPD of N-(3-(5-((1-ethylpiperidin-4-yl)(methyl)amino)-3-(pyrimidin-5-yl)-1H-pyrrolo[3,2-b]pyridin-1-yl)-2,4-difluorophenyl)propane-1-sulfonamide monohydrochloride salt following milling in a swing mill for 10 min. at 30 rps.
FIG. 21 is a plot of the XRPD of N-(3-(5-((1-ethylpiperidin-4-yl)(methyl)amino)-3-(pyrimidin-5-yl)-1H-pyrrolo[3,2-b]pyridin-1-yl)-2,4-difluorophenyl)propane-1-sulfonamide monohydrochloride salt following compression at 2000 N for 1 s to a tablet (diameter-5 mm).
FIG. 31 is a plot of the XRPD of N-(3-(5-((1-ethylpiperidin-4-yl)(methyl)amino)-3-(pyrimidin-5-yl)-1H-pyrrolo[3,2-b]pyridin-1-yl)-2,4-difluorophenyl)propane-1-sulfonamide monosuccinate salt following milling in a swing mill for 10 min. at 30 rps.
FIG. 32 is a plot of the XRPD of N-(3-(5-((1-ethylpiperidin-4-yl)(methyl)amino)-3-(pyrimidin-5-yl)-1H-pyrrolo[3,2-b]pyridin-1-yl)-2,4-difluorophenyl)propane-1-sulfonamide monosuccinate salt following compression at 2000 N for 1 s to a tablet (diameter-5 mm).

[6] = Intrinsic dissolution rate, rotating disc method; format: physicochemical; conditions: pH of medium 1.0 (0.1M HCl), 37° C.
[7] = HsdHan:WIST, plasma, 40 mg/kg oral

In the case of CCCS(=O)(=O)Nc1ccc(F)c(-n2cc(-c3cncnc3)c3nc(N(C)C4CCN(CC)CC4)ccc32)c1F.Cl [Monohydrochloride Salt, N-(3-(5-((1-Ethylpiperidin-4-yl)(methyl)amino)-3-(pyrimidin-5-yl)-1H-pyrrolo[3,2-b]pyridin-1-yl)-2,4-difluorophenyl)propane-1-sulfonamide monohydrochloride salt], the solubility at 2 h ([1]; 0.01 M HCl, simulated gastric fluid, HCl (0.01M)) is reported as 20 µg/mL, the solubility at 2 h ([1]; 0.1 M HCl, simulated gastric fluid, HCl (0.1M)) is reported as 60 µg/mL and the solubility at 2 h ([1]; aqueous buffer, 0.1M Citric acid) is reported as 400 µg/mL. It also gave a solubility at 2 h ([1]; aqueous buffer, 0.1M NaOH) of over 10000 µg/mL, a solubility at 2 h ([1]; aqueous buffer, Acetate Buffer (pH 5.0)) of 200 µg/mL and a solubility at 2 h ([1]; aqueous buffer, McIlvaine Buffer (pH 2.2)) of 400 µg/mL. The solubility at 2 h ([1]; aqueous buffer, McIlvaine Buffer (pH 3.0)) was 200 µg/mL, the solubility at 2 h ([1]; aqueous buffer, McIlvaine Buffer (pH 4.0)) was 100 µg/mL and the solubility at 2 h ([1]; aqueous buffer, McIlvaine Buffer (pH 4.5)) was 200 µg/mL. The solubility at 2 h ([1]; aqueous buffer, McIlvaine Buffer (pH 5.0)) was 200 µg/mL, the solubility at 2 h ([1]; aqueous buffer, McIlvaine Buffer (pH 6.0)) was 100 µg/mL and the solubility at 2 h ([1]; aqueous buffer, McIlvaine Buffer (pH 6.8)) was 100 µg/mL. For the same compound, the solubility at 2 h ([1]; aqueous buffer, McIlvaine Buffer (pH 7.4)) was 10 µg/mL, the solubility at 2 h ([1]; aqueous buffer, Phosphate Buffer (pH 6.8)) was 200 µg/mL and the solubility at 2 h ([1]; aqueous buffer, Sorensen Buffer (pH 9.0)) was 10 µg/mL. It also gave a solubility at 2 h ([1]; aqueous buffer, Sorensen Buffer (pH 11)) of 700 µg/mL, a solubility at 2 h ([1]; Simulated intestinal fluid (FaSSIF)) of 2 µg/mL and a solubility at 2 h ([1]; Simulated intestinal fluid (FeSSIF)) of 30 µg/mL. The solubility at 2 h ([1]; water) was 100 µg/mL, the “Intrinsic Dissolution Rate” value ([2]; pH of medium 2.2, 37° C.) was 121 μg/cm^2/min and the “Intrinsic Dissolution Rate” value ([2]; pH of medium 3.0, 37° C.) was 80 μg/cm^2/min. For the same compound, the “Intrinsic Dissolution Rate” value ([2]; pH of medium 4.5, 37° C.) was 38 μg/cm^2/min, the “Intrinsic Dissolution Rate” value ([2]; pH of medium 6.8, 37° C.) was 15 μg/cm^2/min and the “Intrinsic Dissolution Rate” value ([2]; pH of medium 7.4, 37° C.) was 3 μg/cm^2/min. For the same compound, the AUD ([3]; 40 mg/kg oral) was 0.312 µM·h, the AUD ([3]; 80 mg/kg oral) was 1.04 µM·h and the Cmax ([3]; HsdHan:WIST, in vivo, 80 mg/kg oral) was 419 nM. For the same compound, the bioavailability ([3]; HsdHan:WIST, plasma, po, 40 mg/kg dose) was 1%, the Cmax [3, 7] was 123 nM and the Tmax [3, 7] was 3.3 h. The Tmax ([3]; HsdHan:WIST, plasma, 80 mg/kg oral) was 4 h, the concentration at 24 h ([3]; Time 0.5, 40 mg/kg oral) was 3.53 nM and the concentration at 24 h ([3]; Time 1.0, 40 mg/kg oral) was 6.56 nM. The concentration at 24 h ([3]; Time 1.0, 80 mg/kg oral) was 3.69 nM, the concentration at 24 h ([3]; Time 2.0, 40 mg/kg oral) was 107 nM and the concentration at 24 h ([3]; Time 2.0, 80 mg/kg oral) was 69.9 nM. The concentration at 24 h ([3]; Time 4.0, 40 mg/kg oral) was 60.9 nM, the concentration at 24 h ([3]; Time 4.0, 80 mg/kg oral) was 419 nM and the concentration at 24 h ([3]; Time 6.0, 40 mg/kg oral) was 13.3 nM. For the same compound, the concentration at 24 h ([3]; Time 6.0, 80 mg/kg oral) was 69 nM, the “Change in structure (XRPD) after sorption-desorption experiment” value ([4]; XRPD before and after) was “no significant change in structure occurred” and the “Reversible weight gain (isotherm sorption-desorption)” value ([4]; range from 0-80% relative humidity) was “approximately 2.5%”. The “Reversible weight gain (isotherm sorption-desorption)” value ([4]; range from 0-90% relative humidity) was “approximately 400%”, the “Weight gain (sorption-desorption)” value ([4]; range from 10-90% relative humidity, scale-up sample) was “approximately 2.4%” and the “Crystallinity and polymorphic form after compression (XRPD)” value ([5]; 2000 N for 1 s to a tablet (diameter 5 mm)) was “slight decrease in crystallinity but no change in polymorphic form”. For the same compound, the “Crystallinity and polymorphic form after milling (XRPD)” value ([5]; swing mill for 10 min. at 30 rps) was “significant decrease in crystallinity but no change in polymorphic form” and the “Intrinsic Dissolution Rate” value [6] was 4 μg/cm^2/min.
